According to patent US9688698B2, “Heteroaromatic compounds and their use as dopamine D1 ligands” (PFIZER INC., priority 2014, dated 2017):
Counter-ions that a name gives are not always drawn.

Each molecule was assayed against T1, Human D1 Receptor (Homo sapiens, UniProt P21728) (assay: Human D1 Receptor Binding Assay ([3H]-SCH23390 competition binding)). Details: over-expressing LTK human cell lines; 0.5 nM [3H]-SCH23390; 30 min at 37° C.; footnote a = geometric mean of ≧5 determinations, footnote b = single determination; read-out: Human D1 Receptor Binding, Ki (nM); Geometric mean of 2-4 determinations (unless otherwise indicated).
T1 construct: expressed in transfected cells; host or cells: LTK cell line over-expressing the D1 receptor
T1 sequence (P21728 whole entry): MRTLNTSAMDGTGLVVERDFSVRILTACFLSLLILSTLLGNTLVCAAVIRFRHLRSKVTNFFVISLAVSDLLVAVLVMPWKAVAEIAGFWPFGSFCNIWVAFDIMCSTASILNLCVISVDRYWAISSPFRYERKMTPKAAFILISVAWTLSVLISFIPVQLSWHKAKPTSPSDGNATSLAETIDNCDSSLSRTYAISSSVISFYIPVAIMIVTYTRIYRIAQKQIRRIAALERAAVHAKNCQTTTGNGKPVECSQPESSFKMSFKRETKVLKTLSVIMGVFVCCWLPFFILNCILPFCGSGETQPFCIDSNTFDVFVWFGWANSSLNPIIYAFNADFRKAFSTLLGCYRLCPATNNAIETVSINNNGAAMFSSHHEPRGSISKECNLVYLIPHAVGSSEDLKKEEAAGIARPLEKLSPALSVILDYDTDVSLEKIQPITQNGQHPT
Protocol: The affinity of the compounds described herein was determined by competition binding assays similar to those described in Ryman-Rasmussen et al., “Differential activation of adenylate cyclase and receptor internalization by novel dopamine D1 receptor agonists”, Molecular Pharmacology 68(4):1039-1048 (2005).
D1 binding assays were performed using over-expressing LTK human cell lines. […] These ligand and tissue concentrations were used in time course studies to determine linearity and equilibrium conditions for binding. Binding was at equilibrium with the specified amount of tissue in 30 minutes at 37° C. […] The pellet was resuspended in assay buffer [50 mM Tris (pH 7.4@RT) containing 4 mM MgSO4 and 0.5 mM EDTA]. […] Non-specific binding was determined by radioligand binding in the presence of a saturating concentration of (+)-Butaclamol (10 μM), a D1 antagonist. After a 30 minute incubation period at 37° C., assay samples were rapidly filtered through Unifilter-96 GF/B PEI-coated filter plates and rinsed with 50 mM Tris buffer (pH 7.4 at 4° C.). […] The IC50 value (concentration at which 50% inhibition of specific binding occurs) was calculated by linear regression of the concentration-response data in Microsoft Excel. Ki values were calculated according to the Cheng-Prusoff equation: […]

Point of comparison: `Cc1cc(Oc2nccc3cn[nH]c23)ccc1-c1c(C)n[nH]c(=O)c1C` [Example 25, 4,6-dimethyl-5-[2-methyl-4-(1H-pyrazolo[3,4-c]pyridin-7-yloxy)phenyl]pyridazin-3(2H)-one], Ki 120 nM. Against it:
- Cc1cc(Oc2ncnc3ccsc23)ccc1-c1c(C)c(=O)[nH]c(=O)n1C (single isomer, unassigned) [Example 1, (+)-1,5-dimethyl-6-[2-methyl-4-(thieno[3,2-d]pyrimidin-4-yloxy)phenyl]pyrimidine-2,4(1H,3H)-dione] — 29-fold lower, 4.1 nM
- Cc1cc(Oc2ncnc3ccsc23)ccc1-c1c(C)c(=O)[nH]c(=O)n1C (single isomer, unassigned) [Example 2, (−)-1,5-dimethyl-6-[2-methyl-4-(thieno[3,2-d]pyrimidin-4-yloxy)phenyl]pyrimidine-2,4(1H,3H)-dione] — 67-fold lower, 1.8 nM
- Cc1cc(Oc2nccc3ncsc23)ccc1-c1c(C)ncc(=O)n1C (single isomer, unassigned) [Example 29, (−)-1,5-dimethyl-6-[2-methyl-4-([1,3]thiazolo[5,4-c]pyridin-4-yloxy)phenyl]pyrazin-2(1H)-one] — 3-fold lower, 40.6 nM
- Cc1cc(Oc2nccc3ncsc23)ccc1-c1c(C)ncc(=O)n1C (single isomer, unassigned) [Example 30, (+)-1,5-dimethyl-6-[2-methyl-4-([1,3]thiazolo[5,4-c]pyridin-4-yloxy)phenyl]pyrazin-2(1H)-one] — within 1.5-fold, 116 nM
- Cc1cc(Oc2nccc3ncsc23)ccc1-c1c(C)cnnc1C (single isomer, unassigned) [Example 64, (+)-4-[4-(3,5-dimethylpyridazin-4-yl)-3-methylphenoxy][1,3]thiazolo[5,4-c]pyridine] — 3.7-fold lower, 32.3 nM
- Cc1cc(Oc2nccc3ncsc23)ccc1-c1c(C)cnnc1C (single isomer, unassigned) [Example 65, (−)-4-[4-(3,5-dimethylpyridazin-4-yl)-3-methylphenoxy][1,3]thiazolo[5,4-c]pyridine] — 1.9-fold higher, 223 nM
- Cc1cc(Oc2nccc3ccsc23)ccc1-c1c(C)ncnc1C#N (single isomer, unassigned; ent-1) [Example 45, 6-methyl-5-[2-methyl-4-(thieno[2,3-c]pyridin-7-yloxy)phenyl]pyrimidine-4-carbonitrile, ENT-1] — 8.4-fold lower, 14.3 nM
- Cc1cc(Oc2nccc3ncsc23)ccc1-c1c(C)ncc2nccn12 (single isomer, unassigned; ent-1) [Example 61, 4-[3-methyl-4-(6-methylimidazo[1,2-a]pyrazin-5-yl)phenoxy][1,3]thiazolo[5,4-c]pyridine, ENT-1] — within 1.5-fold, 151 nM
- Cc1cc(Oc2nccc3ccsc23)ccc1-c1c(C)ncnc1C#N (single isomer, unassigned; ent-2) [Example 46, 6-methyl-5-[2-methyl-4-(thieno[2,3-c]pyridin-7-yloxy)phenyl]pyrimidine-4-carbonitrile, ENT-2] — 7.9-fold lower, 15.1 nM
- Cc1cc(Oc2nccc3ncsc23)ccc1-c1c(C)ncc2nccn12 (single isomer, unassigned; ent-2) [Example 62, 4-[3-methyl-4-(6-methylimidazo[1,2-a]pyrazin-5-yl)phenoxy][1,3]thiazolo[5,4-c]pyridine, ENT-2] — 2-fold higher, 239 nM
- Cc1cc(Oc2nccc3cnsc23)ccc1-c1c(C)n[nH]c(=O)c1C [Example 3, 4,6-dimethyl-5-[2-methyl-4-([1,2]thiazolo[5,4-c]pyridin-7-yloxy)phenyl]pyridazin-3(2H)-one] — 11-fold lower, 10.9 nM
- Cc1cc(Oc2ncnc3ccsc23)ccc1-c1cn[nH]c(=O)c1C [Example 4, 4-methyl-5-[2-methyl-4-(thieno[3,2-d]pyrimidin-4-yloxy)phenyl]pyridazin-3(2H)-one] — 1.8-fold lower, 68.4 nM
- Cc1cc(Oc2nccc3ccsc23)ccc1-c1c(C)ncc(=O)n1C [Example 5, 1,5-dimethyl-6-[2-methyl-4-(thieno[2,3-c]pyridin-7-yloxy)phenyl]pyrazin-2(1H)-one] — 75-fold lower, 1.6 nM
- Cc1cc(Oc2nccc3ccsc23)ccc1-c1c(C)ncnc1C [Example 6, 7-[4-(4,6-dimethylpyrimidin-5-yl)-3-methylphenoxy]thieno[2,3-c]pyridine] — 21-fold lower, 5.8 nM
- Cc1ncnc(C)c1-c1ccc(Oc2nccc3ncsc23)cc1C#N [Example 7, 2-(4,6-dimethylpyrimidin-5-yl)-5-([1,3]thiazolo[5,4-c]pyridin-4-yloxy)benzonitrile] — 1.5-fold higher, 184 nM
- Cc1cc(Oc2nccc3ccsc23)ccc1-n1c(C)nc2cnccc21 [Example 8, 2-methyl-1-[2-methyl-4-(thieno[2,3-c]pyridin-7-yloxy)phenyl]-1H-imidazo[4,5-c]pyridine] — 9.2-fold lower, 13.1 nM
- Cc1cc(Oc2nccc3ccoc23)ccc1-c1c(C)ncc2nccn12 [Example 9, 5-[4-(furo[2,3-c]pyridin-7-yloxy)-2-methylphenyl]-6-methylimidazo[1,2-a]pyrazine] — 2.1-fold lower, 57.2 nM
- COc1cc(Oc2nccc3ccsc23)ccc1-c1nccnc1C [Example 10, 7-[3-methoxy-4-(3-methylpyrazin-2-yl)phenoxy]thieno[2,3-c]pyridine] — 2.7-fold lower, 44.9 nM
- Cc1cc(Oc2nccc3ccoc23)ccc1-c1c(C)ncnc1C [Example 11, 7-[4-(4,6-dimethylpyrimidin-5-yl)-3-methylphenoxy]furo[2,3-c]pyridine] — 2.1-fold lower, 57.8 nM
- Cc1cc(Oc2nccc3cc[nH]c23)ccc1-c1c(C)ncnc1C [Example 12, 7-[4-(4,6-dimethylpyrimidin-5-yl)-3-methylphenoxy]-1H-pyrrolo[2,3-c]pyridine] — 3.4-fold higher, 403 nM
- Cc1ncnc(C#N)c1-c1ccc(Oc2nccc3ccsc23)cc1F [Example 13, 5-[2-fluoro-4-(thieno[2,3-c]pyridin-7-yloxy)phenyl]-6-methylpyrimidine-4-carbonitrile] — 3.5-fold lower, 34.5 nM
- Cc1cc(Oc2nccc3ccsc23)ccc1-c1c(C)cnnc1C [Example 14, 7-[4-(3,5-dimethylpyridazin-4-yl)-3-methylphenoxy]thieno[2,3-c]pyridine] — 36-fold lower, 3.3 nM
- Cc1cc(Oc2ncnc3ccsc23)ccc1-c1c(C)ncc(=O)n1C [Example 15, 1,5-dimethyl-6-[2-methyl-4-(thieno[3,2-d]pyrimidin-4-yloxy)phenyl]pyrazin-2(1H)-one] — 3.5-fold lower, 34.5 nM
- Cc1cc(Oc2nccc3ncsc23)ccc1-c1c(C)ncc(=O)n1C [Example 16, 1,5-dimethyl-6-[2-methyl-4-([1,3]thiazolo[5,4-c]pyridin-4-yloxy)phenyl]pyrazin-2(1H)-one] — within 1.5-fold, 82.8 nM
- Cc1ncnc(C)c1-c1ccc(Oc2ncnc3ccsc23)cc1Cl [Example 17, 4-[3-chloro-4-(4,6-dimethylpyrimidin-5-yl)phenoxy]thieno[3,2-d]pyrimidine] — 4.7-fold lower, 25.4 nM
- Cc1cc(Oc2ncnc3ccsc23)c(F)cc1-c1c(C)ncnc1C [Example 18, 4-[4-(4,6-dimethylpyrimidin-5-yl)-2-fluoro-5-methylphenoxy]thieno[3,2-d]pyrimidine] — 3.5-fold lower, 34.5 nM
- Cc1ncnc(C)c1-c1ccc(Oc2ncnc3ccsc23)c(F)c1 [Example 19, 4-[4-(4,6-dimethylpyrimidin-5-yl)-2-fluorophenoxy]thieno[3,2-d]pyrimidine] — within 1.5-fold, 117 nM
- Cc1ncnc(C)c1-c1ccc(Oc2ncnc3ccsc23)c(F)c1C [Example 20, 4-[4-(4,6-dimethylpyrimidin-5-yl)-2-fluoro-3-methylphenoxy]thieno[3,2-d]pyrimidine] — within 1.5-fold, 121 nM
- Cc1ncnc(C)c1-c1cc(F)c(Oc2ncnc3ccsc23)cc1F [Example 21, 4-[4-(4,6-dimethylpyrimidin-5-yl)-2,5-difluorophenoxy]thieno[3,2-d]pyrimidine] — 1.9-fold lower, 62.4 nM
- Cc1ncnc(C)c1-c1ccc(Oc2ncnc3ccsc23)cc1 [Example 22, 4-[4-(4,6-dimethylpyrimidin-5-yl)phenoxy]thieno[3,2-d]pyrimidine] — within 1.5-fold, 146 nM
- COc1cc(Oc2ncnc3ccsc23)ccc1-c1c(C)ncnc1C [Example 23, 4-[4-(4,6-dimethylpyrimidin-5-yl)-3-methoxyphenoxy]thieno[3,2-d]pyrimidine] — within 1.5-fold, 178 nM
- Cc1ncnc(C)c1-c1ccc(Oc2ncnc3ccsc23)cc1F [Example 24, 4-[4-(4,6-dimethylpyrimidin-5-yl)-3-fluorophenoxy]thieno[3,2-d]pyrimidine, trifluoroacetate salt] — 4.4-fold higher, 531 nM
- Cc1cc(Oc2nccc3ncsc23)ccc1-c1c(C)n[nH]c(=O)c1C [Example 26, 4,6-dimethyl-5-[2-methyl-4-([1,3]thiazolo[5,4-c]pyridin-4-yloxy)phenyl]pyridazin-3(2H)-one] — 9.8-fold lower, 12.2 nM
- Cc1cc(Oc2nccc3ncsc23)ccc1-c1cn[nH]c(=O)c1C [Example 27, 4-methyl-5-[2-methyl-4-([1,3]thiazolo[5,4-c]pyridin-4-yloxy)phenyl]pyridazin-3(2H)-one] — 1.6-fold higher, 186 nM
- Cc1n[nH]c(=O)c(C)c1-c1ccc(Oc2nccc3ncsc23)cc1 [Example 28, 4,6-dimethyl-5-[4-([1,3]thiazolo[5,4-c]pyridin-4-yloxy)phenyl]pyridazin-3(2H)-one] — 4.8-fold lower, 25 nM
- Cc1ncnc(C)c1-c1ccc(Oc2nccc3ncsc23)cc1Cl [Example 31, 4-[3-chloro-4-(4,6-dimethylpyrimidin-5-yl)phenoxy][1,3]thiazolo[5,4-c]pyridine] — 1.7-fold lower, 71.9 nM
